From patent US11746100B2 (GLOBAL BLOOD THERAPEUTICS, INC., priority 2020, dated 2023)

target: T1, human ferroportin (Homo sapiens, UniProt Q9NP59); assay: Biological in-vitro ferroportin internalization assay (luciferase reporter); assay type: cell-based; conditions: average pEC50; stably-transfected CHO cell line expressing human ferroportin tagged to a luciferase reporter; 6 h incubation with test compound
T1 construct: luciferase reporter (read with the Nano-Glo Luciferase Assay System); expressed in transfected cells; host or cells: CHO cells, stably transfected, expression induced with doxycycline
T1 sequence (Q9NP59 1-571): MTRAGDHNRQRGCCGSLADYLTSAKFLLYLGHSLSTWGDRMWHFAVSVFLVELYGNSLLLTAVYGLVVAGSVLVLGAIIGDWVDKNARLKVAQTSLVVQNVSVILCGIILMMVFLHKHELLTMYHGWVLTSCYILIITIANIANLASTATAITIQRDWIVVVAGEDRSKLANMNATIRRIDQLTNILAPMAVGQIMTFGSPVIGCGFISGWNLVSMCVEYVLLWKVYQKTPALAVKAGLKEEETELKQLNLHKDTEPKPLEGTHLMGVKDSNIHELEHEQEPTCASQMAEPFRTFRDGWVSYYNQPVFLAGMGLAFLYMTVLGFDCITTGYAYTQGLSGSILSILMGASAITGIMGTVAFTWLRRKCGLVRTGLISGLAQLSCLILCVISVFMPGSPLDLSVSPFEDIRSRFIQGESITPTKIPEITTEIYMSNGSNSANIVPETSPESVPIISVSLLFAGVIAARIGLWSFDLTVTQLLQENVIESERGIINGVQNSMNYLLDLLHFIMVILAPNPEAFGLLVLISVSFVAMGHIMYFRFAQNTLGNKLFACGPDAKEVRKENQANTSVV
In short: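 Read-out is Nano-Glo luciferase signal after 6 h compound exposure, with average pEC50 derived. Cells are a stable CHO line carrying luciferase-tagged human ferroportin, pre-loaded 24 h with ferric ammonium citrate and doxycycline-induced for 24 h.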

Row | SMILES | pEC50
1 | CN(CC(=O)NC(C)(C)C)c1cc(-c2ccccn2)nc2c1CCC2 [Compound 16, N-tert-butyl-2-{methyl[2-(pyridin-2-yl)-5H,6H,7H-cyclopenta[b]pyridin-4-yl]amino}acetamide] | 6.6
2 | CN(C)CCOc1ccnc(-c2nc3c(c(N(C)CC(=O)NC4CC4)n2)CCC3)c1 [Compound 500, N-cyclopropyl-2-[(2-{4-[2-(dimethylamino)ethoxy]pyridin-2-yl}-5H,6H,7H-cyclopenta[d]pyrimidin-4-yl)(methyl)amino]acetamide] | 7.3
3 | CN(CC(=O)NC(C)(C)C)c1nc(-c2cc(OCCS(C)(=O)=O)ccn2)nc2c1CCC2 [Compound 507, N-tert-butyl-2-({2-[4-(2-methanesulfonylethoxy)pyridin-2-yl]-5H,6H,7H-cyclopenta[d]pyrimidin-4-yl}(methyl)amino)acetamide] | 7.9
4 | COc1ccnc(-c2nc3c(c(N(C)CC(=O)N(C)C(C)(C)C)n2)CCC3)c1 [Compound 156, N-tert-butyl-2-{[2-(4-methoxypyridin-2-yl)-5H,6H,7H-cyclopenta[d]pyrimidin-4-yl](methyl)amino}-N-methylacetamide] | 7.9
5 | Cc1cc(OCCO)cc(-c2nc3c(c(N(C)CC(=O)NC(C)(C)C)n2)CCC3)n1 [Compound 427, N-tert-butyl-2-({2-[4-(2-hydroxyethoxy)-6-methylpyridin-2-yl]-5H,6H,7H-cyclopenta[d]pyrimidin-4-yl}(methyl)amino)acetamide] | 7.6
6 | CN1CC[C@@H](Oc2ccnc(-c3nc4c(c(N(C)CC(=O)NC5(C(F)(F)F)CC5)n3)CCC4)c2)C1 [Compound 487, 2-{methyl[2-(4-{[(3R)-1-methylpyrrolidin-3-yl]oxy}pyridin-2-yl)-5H,6H,7H-cyclopenta[d]pyrimidin-4-yl]amino}-N-[1-(trifluoromethyl)cyclopropyl]acetamide] | 7.5
7 | CC(C)NC(=O)CN(C)c1nc(-c2cc(OCCN3CCSCC3)ccn2)nc2c1CCC2 [Compound 505, 2-[methyl(2-{4-[2-(thiomorpholin-4-yl)ethoxy]pyridin-2-yl}-5H,6H,7H-cyclopenta[d]pyrimidin-4-yl)amino]-N-(propan-2-yl)acetamide] | 8.8
8 | CN(CC(=O)NC(C)(C)C)c1nc(-c2cc(OCC3(O)CCCCC3)ccn2)nc2c1CCC2 [Compound 396, N-tert-butyl-2-[(2-{4-[(1-hydroxycyclohexyl)methoxy]pyridin-2-yl}-5H,6H,7H-cyclopenta[d]pyrimidin-4-yl)(methyl)amino]acetamide] | 8.5
9 | Cc1cc(OCC(C)(C)O)cc(-c2nc3c(c(N(C)CC(=O)NC(C)(C)C)n2)CCC3)n1 [Compound 440, N-tert-butyl-2-({2-[4-(2-hydroxy-2-methylpropoxy)-6-methylpyridin-2-yl]-5H,6H,7H-cyclopenta[d]pyrimidin-4-yl}(methyl)amino)acetamide] | 8
10 | Clc1ccnc(-c2nc3c(c(N4CCCCCC4)n2)CCC3)c1 [Compound 96, 1-[2-(4-chloropyridin-2-yl)-5H,6H,7H-cyclopenta[d]pyrimidin-4-yl]azepane] | 6.6
11 | COc1ccnc(-c2nc3c(c(N(C)CC(=O)Nc4ccc(F)cc4)n2)CCC3)c1 [Compound 189, N-(4-fluorophenyl)-2-{[2-(4-methoxypyridin-2-yl)-5H,6H,7H-cyclopenta[d]pyrimidin-4-yl](methyl)amino}acetamide] | 7.7
12 | CN(CC(=O)N1CCCCC1)c1nc(-c2cc(OCC(C)(C)O)ccn2)nc2c1CCC2 [Compound 382, 2-({2-[4-(2-hydroxy-2-methylpropoxy)pyridin-2-yl]-5H,6H,7H-cyclopenta[d]pyrimidin-4-yl}(methyl)amino)-1-(piperidin-1-yl)ethan-1-oneide] | 7.8
13 | CC(C)NC(=O)CN(C)c1nc(-c2cc(OCC(C)(C)O)ccn2)nc2c1CC(C)(C)C2 [Compound 449, 2-({2-[4-(2-hydroxy-2-methylpropoxy)pyridin-2-yl]-6,6-dimethyl-5H,6H,7H-cyclopenta[d]pyrimidin-4-yl}(methyl)amino)-N-(propan-2-yl)acetamide] | 7.2
